According to PMC5831858, “Pharmacological characterisation of CR6086, a potent prostaglandin E2 receptor 4 antagonist, as a new potential disease-modifying anti-rheumatic drug” (Arthritis Research & Therapy, 2018):
Marks after values point to notes of the source that are not given here.

Tests used:
H2 = H2 (Homo sapiens, UniProt P25021); assay: Histamine receptor H2 binding; details: [^125I]APT, Human recombinant CHO cells, read-out: CR6086 Activity at 10µM
ER = assay: Nuclear receptor ER binding; details: [^3H]estradiol, MCF-7 cells
M4 = M4 (Homo sapiens, UniProt P08173); assay: Muscarinic acetylcholine receptor M4 binding; details: [^3H]4-DAMP, Human recombinant CHO cells, read-out: CR6086 Activity at 10µM
Chain of M4 (P08173 whole entry): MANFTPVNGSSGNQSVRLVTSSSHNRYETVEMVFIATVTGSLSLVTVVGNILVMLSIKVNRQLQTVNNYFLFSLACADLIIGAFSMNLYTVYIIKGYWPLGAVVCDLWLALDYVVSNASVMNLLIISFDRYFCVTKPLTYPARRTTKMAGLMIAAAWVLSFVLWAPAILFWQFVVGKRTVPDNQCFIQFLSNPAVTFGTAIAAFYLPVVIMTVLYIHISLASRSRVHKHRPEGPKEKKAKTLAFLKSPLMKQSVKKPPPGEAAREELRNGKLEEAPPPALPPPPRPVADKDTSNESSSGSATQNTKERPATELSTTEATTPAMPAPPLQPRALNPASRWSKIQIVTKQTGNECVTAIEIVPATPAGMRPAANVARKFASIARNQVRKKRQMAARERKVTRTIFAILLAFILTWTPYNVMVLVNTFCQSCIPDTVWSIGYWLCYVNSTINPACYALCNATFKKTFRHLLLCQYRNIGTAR

M1 = M1 (Homo sapiens, UniProt P11229); assay: Muscarinic acetylcholine receptor M1 binding; details: [^3H]pirenzepine, Human recombinant CHO cells, read-out: CR6086 Activity at 10µM
Chain of M1 (P11229 whole entry): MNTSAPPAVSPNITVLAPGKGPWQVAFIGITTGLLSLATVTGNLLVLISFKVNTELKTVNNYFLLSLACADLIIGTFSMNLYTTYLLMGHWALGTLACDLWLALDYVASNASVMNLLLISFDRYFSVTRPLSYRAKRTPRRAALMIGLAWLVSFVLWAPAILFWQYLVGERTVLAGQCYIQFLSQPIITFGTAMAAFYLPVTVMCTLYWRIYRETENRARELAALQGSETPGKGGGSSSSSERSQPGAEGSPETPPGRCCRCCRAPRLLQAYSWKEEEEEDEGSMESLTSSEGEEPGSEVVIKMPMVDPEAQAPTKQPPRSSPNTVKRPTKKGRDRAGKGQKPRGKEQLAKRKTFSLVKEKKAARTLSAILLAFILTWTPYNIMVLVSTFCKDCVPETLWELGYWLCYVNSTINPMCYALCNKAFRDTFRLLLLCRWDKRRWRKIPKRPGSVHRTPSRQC

[1] = system: arthritic mice (collagen-induced arthritis model); assay: CIA in mice, third study (CR6086, MTX, combination): clinical score, oedema, histology; format: in vivo, mouse; details: for CLINICAL SCORE (interquartile range): 30 mg/kg CR6086, median (IQR)
PPARγ = PPARγ (Homo sapiens, UniProt P37231); assay: Nuclear receptor PPARγ binding; details: [^3H]rosiglitazone, Human recombinant E.Coli, read-out: CR6086 Activity at 10µM
Chain of PPARγ (P37231 whole entry): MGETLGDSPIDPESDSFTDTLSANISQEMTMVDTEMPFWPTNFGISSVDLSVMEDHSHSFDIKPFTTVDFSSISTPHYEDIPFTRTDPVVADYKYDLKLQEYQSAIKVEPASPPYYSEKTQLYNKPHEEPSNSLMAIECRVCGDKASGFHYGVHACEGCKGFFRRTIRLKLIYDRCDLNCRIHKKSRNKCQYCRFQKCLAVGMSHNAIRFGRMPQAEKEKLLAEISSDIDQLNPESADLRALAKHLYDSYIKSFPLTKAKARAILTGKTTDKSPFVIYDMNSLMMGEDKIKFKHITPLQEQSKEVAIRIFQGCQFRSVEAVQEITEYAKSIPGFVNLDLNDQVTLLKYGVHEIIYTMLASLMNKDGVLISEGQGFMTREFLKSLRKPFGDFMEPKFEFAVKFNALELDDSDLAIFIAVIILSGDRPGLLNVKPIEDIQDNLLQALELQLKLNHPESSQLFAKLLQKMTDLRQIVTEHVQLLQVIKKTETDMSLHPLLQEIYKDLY

P2X = assay: Purinergic receptor P2X binding; details: [^3H]α,β-MeATP, Rat urinary bladder
AT2 = AT2 (Homo sapiens, UniProt P50052); assay: Angiotensin receptor AT2 binding; details: [^125I]CGP 42112A, Human recombinant HEK-293 cells, read-out: CR6086 Activity at 10µM
Chain of AT2 (P50052 whole entry): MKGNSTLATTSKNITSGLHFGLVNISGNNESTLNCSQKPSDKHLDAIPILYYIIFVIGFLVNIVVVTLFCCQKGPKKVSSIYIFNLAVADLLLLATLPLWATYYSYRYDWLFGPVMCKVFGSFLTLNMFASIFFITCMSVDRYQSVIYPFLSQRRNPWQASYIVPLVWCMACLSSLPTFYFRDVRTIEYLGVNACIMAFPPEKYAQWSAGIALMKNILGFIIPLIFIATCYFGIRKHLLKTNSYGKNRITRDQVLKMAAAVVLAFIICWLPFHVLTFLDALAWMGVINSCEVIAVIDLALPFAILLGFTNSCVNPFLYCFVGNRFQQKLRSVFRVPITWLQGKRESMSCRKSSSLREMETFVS

5-HT1A = 5-HT1A (Homo sapiens, UniProt P08908); assay: Serotonin receptor 5-HT1A binding; details: [^3H]8-OH-DPAT, Human recombinant HEK-293 cells, read-out: CR6086 Activity at 10µM
Chain of 5-HT1A (P08908 whole entry): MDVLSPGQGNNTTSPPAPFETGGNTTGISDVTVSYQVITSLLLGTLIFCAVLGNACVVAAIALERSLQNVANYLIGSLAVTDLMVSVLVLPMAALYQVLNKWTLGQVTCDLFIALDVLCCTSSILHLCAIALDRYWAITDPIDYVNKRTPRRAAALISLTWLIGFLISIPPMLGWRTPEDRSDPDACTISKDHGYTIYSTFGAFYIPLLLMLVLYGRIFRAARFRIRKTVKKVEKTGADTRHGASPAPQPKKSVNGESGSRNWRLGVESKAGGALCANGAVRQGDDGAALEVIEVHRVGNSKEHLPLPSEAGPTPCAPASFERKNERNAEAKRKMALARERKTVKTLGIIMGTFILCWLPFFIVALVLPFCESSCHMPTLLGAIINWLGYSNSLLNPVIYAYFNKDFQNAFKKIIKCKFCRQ

PDGF = PDGF receptor binding; details: [^125I]PDGF BB, Balb/c 3T3 cells
[2] = system: arthritic mice (collagen-induced arthritis model); assay: CIA in mice, second study: serum cytokines and signal limb histology; format: in vivo, mouse; details: 10 days
[3] = system: arthritic mice (collagen-induced arthritis model); assay: FACS analysis of cell populations in the joint, CIA mice; format: in vivo, mouse; details: CR6086 60 mg/kg, naproxen 60 mg/kg, etanercept 10 mg/kg, mean ± SEM
Procedure: In a first study, mice were randomised into the following treatment groups: vehicle, 30 mg/kg CR6086, 60 mg/kg CR6086, 60 mg/kg naproxen and 10 mg/kg etanercept. Animals received the test drugs for 10 days. CR6086 and naproxen were administered orally once daily, whereas etanercept was administered intraperitoneally every other day. Animals treated with vehicle, 60 mg/kg CR6086, naproxen and etanercept were additionally analysed for the proportion of populations of Th17 cells, Th1 cells, regulatory T cells, B cells, macrophages, neutrophils and dendritic cells by fluorescence-activated cell sorting (FACS) after collection of blood, draining lymph nodes and joints.

5-HT2A = 5-HT2A (Homo sapiens, UniProt P28223); assay: Serotonin receptor 5-HT2A binding; details: [^3H]ketanserin, Human recombinant HEK-293 cells, read-out: CR6086 Activity at 10µM
Chain of 5-HT2A (P28223 whole entry): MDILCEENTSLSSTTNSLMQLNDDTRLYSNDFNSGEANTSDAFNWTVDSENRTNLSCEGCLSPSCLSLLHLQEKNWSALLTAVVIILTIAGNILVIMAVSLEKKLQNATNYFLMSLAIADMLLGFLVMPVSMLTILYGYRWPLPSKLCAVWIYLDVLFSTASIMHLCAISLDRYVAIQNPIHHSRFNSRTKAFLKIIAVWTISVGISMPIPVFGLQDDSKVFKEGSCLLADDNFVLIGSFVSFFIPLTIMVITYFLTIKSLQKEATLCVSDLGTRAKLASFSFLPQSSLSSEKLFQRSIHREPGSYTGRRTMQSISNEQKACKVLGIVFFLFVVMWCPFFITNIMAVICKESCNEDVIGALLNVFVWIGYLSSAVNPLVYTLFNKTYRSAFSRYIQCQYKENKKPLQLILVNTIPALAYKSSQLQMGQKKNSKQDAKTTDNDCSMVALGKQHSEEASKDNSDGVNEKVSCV

5-HT3 = 5-HT3 (Homo sapiens, UniProt P46098); assay: Serotonin receptor 5-HT3 binding; details: [^3H]BRL 43694, Human recombinant CHO cells, read-out: CR6086 Activity at 10µM
Chain of 5-HT3 (P46098 24-478): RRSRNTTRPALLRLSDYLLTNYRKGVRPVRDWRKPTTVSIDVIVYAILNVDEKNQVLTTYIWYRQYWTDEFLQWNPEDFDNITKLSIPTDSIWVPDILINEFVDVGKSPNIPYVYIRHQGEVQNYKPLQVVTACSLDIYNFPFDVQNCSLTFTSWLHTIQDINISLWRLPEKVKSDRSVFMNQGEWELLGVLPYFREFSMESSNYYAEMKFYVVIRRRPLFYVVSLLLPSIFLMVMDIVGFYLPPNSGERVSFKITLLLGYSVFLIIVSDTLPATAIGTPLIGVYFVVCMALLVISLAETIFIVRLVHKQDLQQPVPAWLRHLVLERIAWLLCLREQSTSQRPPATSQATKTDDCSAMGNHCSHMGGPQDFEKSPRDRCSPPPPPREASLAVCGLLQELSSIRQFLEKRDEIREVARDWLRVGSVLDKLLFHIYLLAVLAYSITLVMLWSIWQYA

EP2 = molecular target: T1, EP2 (Homo sapiens, UniProt P43116); assay: Eicosanoid receptor EP2 binding; details: [^3H]PGE2, HEK-293 cells, read-out: CR6086 Activity at 10µM
T1 construct: host or cells: HEK-293 cells
T1 sequence (P43116 whole entry): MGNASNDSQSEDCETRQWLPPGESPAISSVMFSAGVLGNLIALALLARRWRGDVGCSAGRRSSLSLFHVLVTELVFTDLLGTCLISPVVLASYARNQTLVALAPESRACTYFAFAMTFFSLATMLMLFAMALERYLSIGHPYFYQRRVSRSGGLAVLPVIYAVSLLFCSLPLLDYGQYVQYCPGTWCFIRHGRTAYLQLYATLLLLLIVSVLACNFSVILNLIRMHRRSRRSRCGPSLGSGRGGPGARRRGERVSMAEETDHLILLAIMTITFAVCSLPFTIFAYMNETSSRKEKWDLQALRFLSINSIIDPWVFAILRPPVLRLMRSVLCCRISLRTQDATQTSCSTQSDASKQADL

[4] = 30 mg/kg oral daily, mean ± SEM
[5] = 60 mg/kg oral daily, mean ± SEM

Chain of H2 (P25021 whole entry): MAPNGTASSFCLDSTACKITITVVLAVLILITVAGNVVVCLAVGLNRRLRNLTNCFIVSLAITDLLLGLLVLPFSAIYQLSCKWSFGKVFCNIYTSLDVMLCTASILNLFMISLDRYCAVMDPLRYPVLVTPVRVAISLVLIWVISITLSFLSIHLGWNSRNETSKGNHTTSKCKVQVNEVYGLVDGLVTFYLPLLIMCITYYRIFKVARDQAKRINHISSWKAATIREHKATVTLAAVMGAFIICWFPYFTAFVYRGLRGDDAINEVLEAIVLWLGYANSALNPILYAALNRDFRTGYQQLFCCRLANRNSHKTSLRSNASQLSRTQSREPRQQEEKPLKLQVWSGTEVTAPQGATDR

With O=C([O-])c1ccc(C2(NC(=O)[C@H]3CC4(CCN3Cc3ccc(C(F)(F)F)cc3)CC4)CC2)cc1.[Na+] [CR6086, Sodium (R)-4-(1-(6-(4-(trifluoromethyl)benzyl)-6-azaspiro[2.5]octane-5-carboxamido)cyclopropyl)benzoate] the inhibition at 10 µM (H2) was under 20%, the “CR6086 Activity at 10µM” value (ER) was “IN (IN = < 20% displacement or inhibition (all tables))” and the inhibition at 10 µM (M4) was under 20%. The inhibition at 10 µM (M1) was under 20%, the “effect on joint histopathology” value ([1]; 16 days, 30 mg/kg CR6086, 3 mg/kg MTX, alone or combined) was “significantly improved all histological features of arthritis” and the “CLINICAL SCORE (interquartile range)” value ([1]; DAY 0) was 2.0 (2.0 – 2.0) *. For the same molecule, the “CLINICAL SCORE (interquartile range)” value ([1]; DAY 1) was 2.0 (2.0 – 2.0), the “CLINICAL SCORE (interquartile range)” value ([1]; DAY 2) was 2.0 (1.0 – 2.0) and the “CLINICAL SCORE (interquartile range)” value ([1]; DAY 3) was 2.0 (1.0 – 3.1). The “CLINICAL SCORE (interquartile range)” value ([1]; DAY 4) was 2.0 (1.0 – 2.3), the “CLINICAL SCORE (interquartile range)” value ([1]; DAY 5) was 2.0 (1.3 – 2.0) and the “CLINICAL SCORE (interquartile range)” value ([1]; DAY 6) was 2.0 (2.0 – 3.0). For the same molecule, the “CLINICAL SCORE (interquartile range)” value ([1]; DAY 7) was 2.0 (1.0 – 3.1), the “CLINICAL SCORE (interquartile range)” value ([1]; DAY 8) was 2.0 (0.5 – 3.5) and the “CLINICAL SCORE (interquartile range)” value ([1]; DAY 9) was 2.0 (1.0 – 3.3). For the same molecule, the “CLINICAL SCORE (interquartile range)” value ([1]; DAY 10) was 2.5 (2.0 – 4.3), the “CLINICAL SCORE (interquartile range)” value ([1]; DAY 11) was 4.0 (2.0 – 5.0) and the “CLINICAL SCORE (interquartile range)” value ([1]; DAY 12) was 4.8 (2.8 – 5.1). For the same molecule, the “CLINICAL SCORE (interquartile range)” value ([1]; DAY 13) was 4.5 (3.0 – 5.5), the “CLINICAL SCORE (interquartile range)” value ([1]; DAY 14) was 3.0 (3.0 – 4.9) and the “CLINICAL SCORE (interquartile range)” value ([1]; DAY 15) was 4.5 (3.0 – 5.0). For the same molecule, the “CLINICAL SCORE (interquartile range)” value ([1]; DAY 16) was 2.0 (1.0 – 3.5), the inhibition at 10 µM (PPARγ) was under 20% and the “CR6086 Activity at 10µM” value (P2X) was “IN (IN = < 20% displacement or inhibition (all tables))”. For the same molecule, the inhibition at 10 µM (AT2) was under 20%, the inhibition at 10 µM (5-HT1A) was under 20% and the “CR6086 Activity at 10µM” value (PDGF) was “IN (IN = < 20% displacement or inhibition (all tables))”. The IFNγ serum concentration [2, 4] was 1.79 ± 0.32 pg/mL, the IL-10 serum concentration [2, 4] was 16.17 ± 1.95 pg/mL and the IL-17 serum concentration [2, 4] was 2.36 ± 0.62 pg/mL. The TNFα serum concentration [2, 4] was 34.37 ± 2.21 pg/mL, the IL-10 serum concentration [2, 5] was 18.16 ± 2.65 pg/mL and the IL-17 serum concentration [2, 5] was 0.92 ± 0.20 pg/mL. The TNFα serum concentration [2, 5] was 33.67 ± 3.58 pg/mL, the “effect on IL-6 mean serum concentrations” value ([2]; 60 mg/kg oral once daily) was “returned towards normal levels” and the “histological scores of the signal limb” value ([2]; 30 and 60 mg/kg oral once daily) was “acts as a disease modifier”. For the same molecule, the “B cells, Percentage of total cells” value [3] was 6.65 ± 0.72%, the “Dendritic cells, Percentage of total cells” value [3] was 1.72 ± 0.44% and the “Macrophages, Percentage of total cells” value [3] was 11.14 ± 2.93^a %. The “Neutrophils, Percentage of total cells” value [3] was 9.98 ± 2.89^a %, the “Th1, Percentage of total cells” value [3] was 0.14 ± 0.03^b % and the “Th17, Percentage of total cells” value [3] was 0.06 ± 0.01^b %. The “Treg, Percentage of total cells” value [3] was 0.38 ± 0.12%, the inhibition at 10 µM (5-HT2A) was under 20% and the inhibition at 10 µM (5-HT3) was under 20%. For the same molecule, the inhibition at 10 µM (EP2) was under 20%.
